# In PubChem BioAssay (NCI):
#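 The concentration for 50% growth inhibition is given as GI50. TGI denotes the concentration required for complete inhibition of growth.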
# Tests used:
# Test in all cases: DTP human tumour cell line panel, 384-well format
# 786-0 renal = system: 786-0 renal
# A498 renal = system: A498 renal
# A549 NSCLC = system: A549 NSCLC
# ACHN renal = system: ACHN renal
# BT-549 breast = system: BT-549 breast
# CAKI-1 renal = system: CAKI-1 renal
# CCRF-CEM leukemia = system: CCRF-CEM leukemia
# COLO 205 colon = system: COLO 205 colon
# DU-145 prostate = system: DU-145 prostate
# EKVX NSCLC = system: EKVX NSCLC
# HCC-2998 colon = system: HCC-2998 colon
# HCT-116 colon = system: HCT-116 colon
# HCT-15 colon = system: HCT-15 colon
# HL-60(TB) leukemia = system: HL-60(TB) leukemia
# HOP-62 NSCLC = system: HOP-62 NSCLC
# HOP-92 NSCLC = system: HOP-92 NSCLC
# HS 578T breast = system: HS 578T breast
# HT29 colon = system: HT29 colon
# IGROV1 ovarian = system: IGROV1 ovarian
# K-562 leukemia = system: K-562 leukemia
# KM12 colon = system: KM12 colon
# LOX IMVI melanoma = system: LOX IMVI melanoma
# M14 melanoma = system: M14 melanoma
# MALME-3M melanoma = system: MALME-3M melanoma
# MCF7 breast = system: MCF7 breast
# MDA-MB-231 breast = system: MDA-MB-231 breast
# MDA-MB-435 melanoma = system: MDA-MB-435 melanoma
# MDA-MB-468 breast = system: MDA-MB-468 breast
# MOLT-4 leukemia = system: MOLT-4 leukemia
# NCI-H226 lung = system: NCI-H226 lung
# NCI-H23 lung = system: NCI-H23 lung
# NCI-H322M lung = system: NCI-H322M lung
# NCI-H460 NSCLC = system: NCI-H460 NSCLC
# NCI-H522 lung = system: NCI-H522 lung
# NCI/ADR-RES ovarian = system: NCI/ADR-RES ovarian
# OVCAR-3 ovarian = system: OVCAR-3 ovarian
# OVCAR-4 ovarian = system: OVCAR-4 ovarian
# OVCAR-5 ovarian = system: OVCAR-5 ovarian
# OVCAR-8 ovarian = system: OVCAR-8 ovarian
# PC-3 prostate = system: PC-3 prostate
# RPMI-8226 leukemia = system: RPMI-8226 leukemia
# RXF 393 renal = system: RXF 393 renal
# SF-268 CNS = system: SF-268 CNS
# SF-295 CNS = system: SF-295 CNS
# SF-539 CNS = system: SF-539 CNS
# SK-MEL-28 melanoma = system: SK-MEL-28 melanoma
# SK-MEL-5 melanoma = system: SK-MEL-5 melanoma
# SK-OV-3 ovarian = system: SK-OV-3 ovarian
# SN12C renal = system: SN12C renal
# SNB-19 CNS = system: SNB-19 CNS
# SNB-75 CNS = system: SNB-75 CNS
# SW-620 colon = system: SW-620 colon
# T-47D breast = system: T-47D breast
# TK-10 renal = system: TK-10 renal
# U251 glioblastoma = system: U251 glioblastoma
# UACC-257 melanoma = system: UACC-257 melanoma
# UACC-62 melanoma = system: UACC-62 melanoma
# UO-31 renal = system: UO-31 renal
smiles,measurement,setting,value
CCCCCCCC/C=C/CCCCCCCC(=O)OC[C@H]1O[C@@H](n2ccc(N)nc2=O)C(F)(F)[C@@H]1O,GI50,786-0 renal,< 10 nM
same,TGI,786-0 renal,< 10 nM
same,GI50,A498 renal,< 10 nM
same,TGI,A498 renal,14.9 µM
same,GI50,A549 NSCLC,< 10 nM
same,TGI,A549 NSCLC,11.9 µM
same,GI50,ACHN renal,< 10 nM
same,TGI,ACHN renal,< 10 nM
same,GI50,BT-549 breast,< 10 nM
same,TGI,BT-549 breast,< 10 nM
same,GI50,CAKI-1 renal,< 10 nM
same,TGI,CAKI-1 renal,2990 nM
same,GI50,CCRF-CEM leukemia,< 10 nM
same,TGI,CCRF-CEM leukemia,< 10 nM
same,GI50,COLO 205 colon,< 10 nM
same,TGI,COLO 205 colon,49.6 nM
same,GI50,DU-145 prostate,< 10 nM
same,TGI,DU-145 prostate,2390 nM
same,GI50,EKVX NSCLC,57.6 nM
same,TGI,EKVX NSCLC,15.4 µM
same,GI50,HCC-2998 colon,< 10 nM
same,TGI,HCC-2998 colon,11.1 nM
same,GI50,HCT-116 colon,< 10 nM
same,TGI,HCT-116 colon,10.2 µM
same,GI50,HCT-15 colon,< 10 nM
same,TGI,HCT-15 colon,59.7 µM
same,GI50,HL-60(TB) leukemia,< 10 nM
same,TGI,HL-60(TB) leukemia,< 10 nM
same,GI50,HOP-62 NSCLC,< 10 nM
same,TGI,HOP-62 NSCLC,< 10 nM
same,GI50,HOP-92 NSCLC,10.5 nM
same,TGI,HOP-92 NSCLC,22.4 µM
same,GI50,HS 578T breast,< 10 nM
same,TGI,HS 578T breast,16.5 µM
same,GI50,HT29 colon,< 10 nM
same,TGI,HT29 colon,8.7 µM
same,GI50,IGROV1 ovarian,< 10 nM
same,TGI,IGROV1 ovarian,81.4 µM
same,GI50,K-562 leukemia,< 10 nM
same,TGI,K-562 leukemia,15 µM
same,GI50,KM12 colon,< 10 nM
same,TGI,KM12 colon,15.3 µM
same,GI50,LOX IMVI melanoma,< 10 nM
same,TGI,LOX IMVI melanoma,18.8 nM
same,GI50,M14 melanoma,< 10 nM
same,TGI,M14 melanoma,< 10 nM
same,GI50,MALME-3M melanoma,< 10 nM
same,TGI,MALME-3M melanoma,15.1 µM
same,GI50,MCF7 breast,< 10 nM
same,TGI,MCF7 breast,14.1 µM
same,GI50,MDA-MB-231 breast,234 nM
same,TGI,MDA-MB-231 breast,13.5 µM
same,GI50,MDA-MB-435 melanoma,138 nM
same,TGI,MDA-MB-435 melanoma,15.6 µM
same,GI50,MDA-MB-468 breast,< 10 nM
same,TGI,MDA-MB-468 breast,< 10 nM
same,GI50,MOLT-4 leukemia,< 10 nM
same,TGI,MOLT-4 leukemia,< 10 nM
same,GI50,NCI-H226 lung,24.8 nM
same,TGI,NCI-H226 lung,83.2 nM
same,GI50,NCI-H23 lung,< 10 nM
same,TGI,NCI-H23 lung,< 10 nM
same,GI50,NCI-H322M lung,1310 nM
same,TGI,NCI-H322M lung,> 100 µM
same,GI50,NCI-H460 NSCLC,< 10 nM
same,TGI,NCI-H460 NSCLC,< 10 nM
same,GI50,NCI-H522 lung,< 10 nM
same,TGI,NCI-H522 lung,2220 nM
same,GI50,NCI/ADR-RES ovarian,< 10 nM
same,TGI,NCI/ADR-RES ovarian,< 10 nM
same,GI50,OVCAR-3 ovarian,< 10 nM
same,TGI,OVCAR-3 ovarian,16.7 µM
same,GI50,OVCAR-4 ovarian,38.8 µM
same,TGI,OVCAR-4 ovarian,> 100 µM
same,GI50,OVCAR-5 ovarian,< 10 nM
same,TGI,OVCAR-5 ovarian,> 100 µM
same,GI50,OVCAR-8 ovarian,< 10 nM
same,TGI,OVCAR-8 ovarian,< 10 nM
same,GI50,PC-3 prostate,2050 nM
same,TGI,PC-3 prostate,35.6 µM
same,GI50,RPMI-8226 leukemia,< 10 nM
same,TGI,RPMI-8226 leukemia,< 10 nM
same,GI50,RXF 393 renal,< 10 nM
same,TGI,RXF 393 renal,90.2 nM
same,GI50,SF-268 CNS,< 10 nM
same,TGI,SF-268 CNS,< 10 nM
same,GI50,SF-295 CNS,< 10 nM
same,TGI,SF-295 CNS,18.5 nM
same,GI50,SF-539 CNS,< 10 nM
same,TGI,SF-539 CNS,< 10 nM
same,GI50,SK-MEL-28 melanoma,< 10 nM
same,TGI,SK-MEL-28 melanoma,51.5 µM
same,GI50,SK-MEL-5 melanoma,< 10 nM
same,TGI,SK-MEL-5 melanoma,24.7 nM
same,GI50,SK-OV-3 ovarian,< 10 nM
same,TGI,SK-OV-3 ovarian,2420 nM
same,GI50,SN12C renal,< 10 nM
same,TGI,SN12C renal,39.9 nM
same,GI50,SNB-19 CNS,< 10 nM
same,TGI,SNB-19 CNS,518 nM
same,GI50,SNB-75 CNS,< 10 nM
same,TGI,SNB-75 CNS,49.2 nM
same,GI50,SW-620 colon,< 10 nM
same,TGI,SW-620 colon,46 µM
same,GI50,T-47D breast,< 10 nM
same,TGI,T-47D breast,1560 nM
same,GI50,TK-10 renal,> 100 µM
same,TGI,TK-10 renal,> 100 µM
same,GI50,U251 glioblastoma,< 10 nM
same,TGI,U251 glioblastoma,< 10 nM
same,GI50,UACC-257 melanoma,< 10 nM
same,TGI,UACC-257 melanoma,92 nM
same,GI50,UACC-62 melanoma,< 10 nM
same,TGI,UACC-62 melanoma,< 10 nM
same,GI50,UO-31 renal,< 10 nM
same,TGI,UO-31 renal,< 10 nM
